According to PMC11257039, “VCP activator reverses nuclear proteostasis defects and enhances TDP-43 aggregate clearance in multisystem proteinopathy models” (The Journal of Clinical Investigation, 2024):
Where “and” joins values, the source holds several entries; their conditions need not be identical. Equal entries are not always repeated.

Columns and labels:
recombinant WT VCP [1] = biological target: T1, recombinant WT VCP (Mus musculus, UniProt Q01853); test: Kinase-Glo ATPase assay, recombinant WT VCP; format: biochemical; details: for ATP consumed: WT VCP no UN
T1 construct: in the full-length recombinant VCP; His (N); made in house; host or cells: Escherichia coli BL21-CodonPlus (DE3)-RIL
T1 sequence (Q01853 whole entry): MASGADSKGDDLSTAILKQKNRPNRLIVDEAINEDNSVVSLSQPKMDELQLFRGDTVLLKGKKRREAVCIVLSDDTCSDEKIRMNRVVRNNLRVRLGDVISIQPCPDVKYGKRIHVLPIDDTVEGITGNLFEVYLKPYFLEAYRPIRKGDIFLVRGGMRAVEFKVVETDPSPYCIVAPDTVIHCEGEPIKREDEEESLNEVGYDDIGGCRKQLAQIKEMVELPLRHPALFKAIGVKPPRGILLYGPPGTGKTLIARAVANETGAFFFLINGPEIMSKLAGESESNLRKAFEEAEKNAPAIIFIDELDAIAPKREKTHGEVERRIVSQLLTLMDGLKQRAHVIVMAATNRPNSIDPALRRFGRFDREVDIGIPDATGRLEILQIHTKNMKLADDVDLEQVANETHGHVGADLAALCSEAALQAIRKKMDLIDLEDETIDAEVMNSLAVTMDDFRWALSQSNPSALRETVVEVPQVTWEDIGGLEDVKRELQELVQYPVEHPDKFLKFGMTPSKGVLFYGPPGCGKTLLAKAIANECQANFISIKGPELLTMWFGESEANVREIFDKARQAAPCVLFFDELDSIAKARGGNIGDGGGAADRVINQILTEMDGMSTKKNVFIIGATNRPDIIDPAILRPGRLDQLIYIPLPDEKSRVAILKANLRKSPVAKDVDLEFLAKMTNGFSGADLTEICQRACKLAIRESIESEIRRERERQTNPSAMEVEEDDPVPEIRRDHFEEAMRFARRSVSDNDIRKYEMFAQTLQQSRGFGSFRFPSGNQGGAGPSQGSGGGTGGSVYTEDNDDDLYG
Summary of the method: (§1)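 Mouse VCP (50 nM), alone or with 50 nM UFD1/NPLOC4, was incubated 1 h at 25 °C with 62.5 μM ATP and a range of compound concentrations in HEPES pH 7.5, 100 mM NaCl, 10 mM MgCl2, 2% DMSO. Remaining ATP was read by Kinase-Glo luminescence. Dose data were fit to a 3-parameter curve; ATP-varied data were fit to Michaelis-Menten.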

WT VCP + Ufd1/Nploc4 = biological target: T2, WT VCP + Ufd1/Nploc4 (Mus musculus, UniProt Q01853); test: Kinase-Glo ATPase assay, WT VCP with UFD1/NPLOC4 (UN); format: biochemical; details: for ATP consumed: WT VCP with UN
T2 construct: in the full-length recombinant VCP; His (N); made in house; host or cells: E. coli (VCP: BL21-CodonPlus (DE3)-RIL; UFD1 and NPLOC4: E. coli (DE3), purified by the MD Anderson core)
T2 sequence (Q01853 whole entry): as above
T2 sequence (Q92890 whole entry partner): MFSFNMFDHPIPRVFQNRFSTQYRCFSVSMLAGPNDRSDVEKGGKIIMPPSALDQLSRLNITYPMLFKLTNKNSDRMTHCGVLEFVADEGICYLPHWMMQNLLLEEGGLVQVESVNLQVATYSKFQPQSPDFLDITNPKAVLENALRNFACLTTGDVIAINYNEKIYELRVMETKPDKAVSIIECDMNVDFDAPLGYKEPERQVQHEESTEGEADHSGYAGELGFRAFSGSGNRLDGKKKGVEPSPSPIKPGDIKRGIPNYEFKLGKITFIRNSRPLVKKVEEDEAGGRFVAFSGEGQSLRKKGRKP
T2 sequence (Q8TAT6 whole entry partner): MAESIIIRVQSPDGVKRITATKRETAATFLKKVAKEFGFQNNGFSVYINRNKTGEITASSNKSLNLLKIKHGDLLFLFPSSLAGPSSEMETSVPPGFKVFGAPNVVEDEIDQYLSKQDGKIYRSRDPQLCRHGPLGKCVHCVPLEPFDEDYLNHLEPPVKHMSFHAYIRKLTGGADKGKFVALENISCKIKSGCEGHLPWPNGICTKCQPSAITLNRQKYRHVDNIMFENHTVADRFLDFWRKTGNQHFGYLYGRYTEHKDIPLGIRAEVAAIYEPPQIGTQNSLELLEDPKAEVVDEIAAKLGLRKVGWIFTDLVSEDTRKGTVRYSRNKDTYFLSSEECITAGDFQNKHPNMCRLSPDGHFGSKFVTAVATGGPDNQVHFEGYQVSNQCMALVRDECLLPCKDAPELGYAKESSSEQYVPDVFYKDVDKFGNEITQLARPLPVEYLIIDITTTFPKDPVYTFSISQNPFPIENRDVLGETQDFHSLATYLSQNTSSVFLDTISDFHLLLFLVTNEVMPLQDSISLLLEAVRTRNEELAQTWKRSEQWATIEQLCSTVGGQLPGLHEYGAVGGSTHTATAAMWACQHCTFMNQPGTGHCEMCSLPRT
Summary of the method: as §1

recombinant WT VCP [2] = biological target: T1, recombinant WT VCP; test: MESG-PNP (EnzCheck) phosphate release ATPase assay, WT VCP; format: biochemical; details: for ATPase activity v0/ET: 25 μM compound, replicate experiments
Summary of the method: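 50 nM mouse WT VCP with 25 μM compound, 2% DMSO and varied ATP at 25°C; phosphate release followed by MESG-PNP absorbance at 360 nm for over 15 min against a phosphate standard curve. Initial rates from the linear portion, fitted to a 3-parameter dose curve or to Michaelis-Menten.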

[3] = tested on: WT HeLa cells expressing GFP-TDP-4FL; test: Flow cytometry of GFP-TDP-4FL integrated fluorescence, WT HeLa; format: cell-based; details: for Integrated Fluorescence WT (Normalized to CHX): replicate values
Summary of the method: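 Trypsinised cells resuspended in colorless DMEM with 2% FBS and analysed by flow cytometry. Integrated fluorescence taken as percent GFP-positive cells multiplied by GFP median fluorescence.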

luciferase = test: Luciferase counter assay: Kinase-Glo with 62.5 μM ATP without recombinant VCP; format: biochemical; details: for measured ATP consumed (nmol) without VCP: replicate values
Summary of the method: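 Counter-screen with no recombinant VCP: 62.5 μM ATP and rising compound concentrations in ATPase buffer (25 mM HEPES pH 7.5, 100 mM NaCl, 10 mM MgCl2, 2% DMSO), 1 h at 25°C. Remaining ATP was read as Kinase-Glo luminescence after 20 min at room temperature; n=3, linear mixed effects model.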

A232E VCP = biological target: T3, A232E VCP (Mus musculus, UniProt Q01853, A232E); test: MESG-PNP ATPase assay, recombinant A232E VCP; format: biochemical
T3 construct: in the full-length recombinant VCP; His (N); made in house; host or cells: Escherichia coli BL21-CodonPlus (DE3)-RIL
T3 sequence (Q01853 whole entry A232E): as the sequence (Q01853 whole entry) above, with A232E counted along it
Summary of the method: (§2)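 Phosphate release (MESG-PNP, A360) from 50 nM recombinant mouse VCP mutant, with 25 μM compound versus 2% DMSO, at 1mM ATP. Read >15 min at 25°C, quantified against a phosphate standard curve; initial velocity from linear fit of the linear portion.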

R155H VCP = biological target: T4, R155H VCP (Mus musculus, UniProt Q01853, R155H); test: MESG-PNP ATPase assay, recombinant R155H VCP; format: biochemical
T4 construct: in the full-length recombinant VCP; His (N); made in house; host or cells: Escherichia coli BL21-CodonPlus (DE3)-RIL
T4 sequence (Q01853 whole entry R155H): as the sequence (Q01853 whole entry) above, with R155H counted along it
Summary of the method: as §2

[4] = 25 μM compound, 1 mM ATP, 50 nM VCP

For COCCNC(=O)NC(=O)COC(=O)c1cc([N+](=O)[O-])ccc1Sc1nc(C)cs1 [UP109], the EC50 (recombinant WT VCP [1]; EC50 (μM) (95% CI), WT VCP without UN, 50 nM VCP, 62.5 μM ATP, 2% DMSO) was 24.7 µM, the “ATP consumed” value (recombinant WT VCP [1]; 1.56 μM compound) was 0.864 nmol and 1.057 nmol and 1.000 nmol and the “ATP consumed” value (recombinant WT VCP [1]; 3.13 μM compound) was 1.129 nmol and 1.166 nmol and 1.237 nmol. For the same compound, the “ATP consumed” value (recombinant WT VCP [1]; 6.25 μM compound) was 1.129 nmol and 1.374 nmol and 1.469 nmol, the “ATP consumed” value (recombinant WT VCP [1]; 12.5 μM compound) was 1.453 nmol and 1.583 nmol and 1.518 nmol and the “ATP consumed” value (recombinant WT VCP [1]; 25 μM compound) was 1.644 nmol and 1.860 nmol and 1.582 nmol. For the same compound, the “ATP consumed” value (recombinant WT VCP [1]; 50 μM compound) was 1.793 nmol and 1.914 nmol and 2.036 nmol, the “ATP consumed” value (recombinant WT VCP [1]; 100 μM compound) was 1.926 nmol and 2.030 nmol and 2.160 nmol and the “ATP consumed” value (recombinant WT VCP [1]; 200 μM compound) was 2.051 nmol and 2.217 nmol and 2.241 nmol. The “recombinant WT VCP ATPase activity” value (recombinant WT VCP [1]; in vitro validation of 106 screen hits) was “significantly increased”, the “increase of VCP activity” value (recombinant WT VCP [1]; maximum, WT VCP without UN) was 97% and the “change in EC50 with UN compared to without UN” value (WT VCP + Ufd1/Nploc4) was “non-significant decreases”. For the same compound, the “change in maximum percent activity with UN compared to without UN” value (WT VCP + Ufd1/Nploc4) was “significantly decreased”, the EC50 (WT VCP + Ufd1/Nploc4; WT VCP + Ufd1/Nploc4, 1:1 molar ratio) was 13.4 µM and the “ATP consumed” value (WT VCP + Ufd1/Nploc4; 1.56 μM compound) was 1.207 nmol and 1.374 nmol and 1.037 nmol. For the same compound, the “ATP consumed” value (WT VCP + Ufd1/Nploc4; 3.13 μM compound) was 1.252 nmol and 1.505 nmol and 1.198 nmol, the “ATP consumed” value (WT VCP + Ufd1/Nploc4; 6.25 μM compound) was 1.448 nmol and 1.727 nmol and 1.392 nmol and the “ATP consumed” value (WT VCP + Ufd1/Nploc4; 12.5 μM compound) was 1.655 nmol and 1.932 nmol and 1.557 nmol. For the same compound, the “ATP consumed” value (WT VCP + Ufd1/Nploc4; 25 μM compound) was 1.893 nmol and 2.050 nmol and 1.818 nmol, the “ATP consumed” value (WT VCP + Ufd1/Nploc4; 50 μM compound) was 2.078 nmol and 2.217 nmol and 1.927 nmol and the “ATP consumed” value (WT VCP + Ufd1/Nploc4; 100 μM compound) was 2.107 nmol and 2.355 nmol and 2.018 nmol. For the same compound, the “ATP consumed” value (WT VCP + Ufd1/Nploc4; 200 μM compound) was 1.978 nmol and 2.301 nmol and 2.081 nmol, the “decrease in KM compared with DMSO” value (recombinant WT VCP [2]; 25 μM activator) was “more than 2 fold” and the “kcat (nmol Pi / nmol VCP / s) (95% CI)” value (recombinant WT VCP [2]; 25 μM activator) was 0.489 (0.459, 0.520) nmol Pi / nmol VCP / s. The “increase in catalytic efficiency (kcat/KM)” value (recombinant WT VCP [2]; 25 μM activator, versus DMSO) was greater than 4 fold, the increase in kcat (recombinant WT VCP [2]; 25 μM activator, versus DMSO) was 100% and the “ATPase activity v0/ET” value (recombinant WT VCP [2]; [ATP] 62.5 μM) was 0.302 nmol Pi / nmol VCP / s and 0.325 nmol Pi / nmol VCP / s and 0.308 nmol Pi / nmol VCP / s. The “ATPase activity v0/ET” value (recombinant WT VCP [2]; [ATP] 125 μM) was 0.374 nmol Pi / nmol VCP / s and 0.402 nmol Pi / nmol VCP / s and 0.380 nmol Pi / nmol VCP / s, the “ATPase activity v0/ET” value (recombinant WT VCP [2]; [ATP] 250 μM) was 0.403 nmol Pi / nmol VCP / s and 0.414 nmol Pi / nmol VCP / s and 0.420 nmol Pi / nmol VCP / s and the “ATPase activity v0/ET” value (recombinant WT VCP [2]; [ATP] 500 μM) was 0.423 nmol Pi / nmol VCP / s and 0.468 nmol Pi / nmol VCP / s and 0.467 nmol Pi / nmol VCP / s. The “ATPase activity v0/ET” value (recombinant WT VCP [2]; [ATP] 1000 μM) was 0.455 nmol Pi / nmol VCP / s and 0.493 nmol Pi / nmol VCP / s and 0.498 nmol Pi / nmol VCP / s, the “Integrated Fluorescence WT (Normalized to CHX)” value ([3]; 5μM compound with CHX) was 1.011 and 0.958 and 1.026 and 0.960 and 0.926 and 0.822 and 0.883 and 0.671 and the “Integrated Fluorescence WT (Normalized to CHX)” value ([3]; 20μM compound with CHX) was 0.950 and 0.938 and 0.974 and 0.870 and 0.844 and 0.840 and 0.850 and 0.749. For the same compound, the “clearance of GFP-TDP-4FL aggregates (integrated fluorescence)” value ([3]; MG132, then CHX with 5 or 20 μM activator) was “enhances clearance of TDP-4FL inclusions”, the “luciferase activity (measured ATP without VCP)” value (luciferase; 62.5 μM ATP, increasing concentrations of compound) was “did not inhibit luciferase activity” and the “measured ATP consumed (nmol) without VCP” value (luciferase; compound 6.25 μM) was 3.224 nmol and 3.481 nmol and 3.557 nmol and 3.618 nmol and 3.348 nmol and 3.306 nmol and 3.280 nmol and 3.059 nmol and 3.211 nmol and 3.590 nmol and 3.249 nmol and 3.229 nmol. The “measured ATP consumed (nmol) without VCP” value (luciferase; compound 12.5 μM) was 3.275 nmol and 3.593 nmol and 3.611 nmol and 3.469 nmol and 3.221 nmol and 3.387 nmol and 3.414 nmol and 3.086 nmol and 3.141 nmol and 3.174 nmol and 3.231 nmol and 3.422 nmol, the “measured ATP consumed (nmol) without VCP” value (luciferase; compound 25 μM) was 3.285 nmol and 3.476 nmol and 3.450 nmol and 3.355 nmol and 3.220 nmol and 3.354 nmol and 3.314 nmol and 3.030 nmol and 3.217 nmol and 3.388 nmol and 3.578 nmol and 3.396 nmol and the “measured ATP consumed (nmol) without VCP” value (luciferase; compound 50 μM) was 3.335 nmol and 3.348 nmol and 3.307 nmol and 3.386 nmol and 3.228 nmol and 2.949 nmol and 3.054 nmol and 3.211 nmol and 3.367 nmol and 3.287 nmol and 3.322 nmol. For the same compound, the “measured ATP consumed (nmol) without VCP” value (luciferase; compound 100 μM) was 3.258 nmol and 3.303 nmol and 3.325 nmol and 3.212 nmol and 3.287 nmol and 3.191 nmol and 3.396 nmol and 3.257 nmol and 3.381 nmol and 3.296 nmol, the “measured ATP consumed (nmol) without VCP” value (luciferase; compound 200 μM) was 3.338 nmol and 3.532 nmol and 3.360 nmol and 3.185 nmol and 3.242 nmol and 2.772 nmol and 3.166 nmol and 3.261 nmol and 3.507 nmol and 3.171 nmol and 3.672 nmol and the “ATPase activity of A232E VCP” value (A232E VCP; [4]) was “increases ATPase activity”. The “ATPase activity, nmol Pi / nmol VCP / s” value (A232E VCP; VCP Mutation A232E, replicate values) was 1.176 nmol Pi / nmol VCP / s and 1.282 nmol Pi / nmol VCP / s and 1.456 nmol Pi / nmol VCP / s, the “ATPase activity of R155H VCP” value (R155H VCP; [4]) was “increases ATPase activity” and the “ATPase activity, nmol Pi / nmol VCP / s” value (R155H VCP; VCP Mutation R155H, replicate values) was 1.058 nmol Pi / nmol VCP / s and 1.110 nmol Pi / nmol VCP / s and 1.179 nmol Pi / nmol VCP / s.
